# According to ChEMBL document CHEMBL4715697, “Synthesis and biological activity of benzamide DNA minor groove binders” (2016):
# Assays:
# Assay type in all cases: functional
# EKVX = test: Growth inhibition of human EKVX cells assessed as cell growth at 0.01 uM incubated for 48 hrs by sulforhodamine B assay relative to control; conditions: read-out: Activity
# HOP-62 [1] = test: Growth inhibition of human HOP-62 cells assessed as cell growth at 0.01 uM incubated for 48 hrs by sulforhodamine B assay relative to control; conditions: read-out: Activity
# COLO 205 = test: Growth inhibition of human COLO 205 cells assessed as cell growth at 0.01 uM incubated for 48 hrs by sulforhodamine B assay relative to control; conditions: read-out: Activity
# SNB-75 [2] = test: Growth inhibition of human SNB-75 cells assessed as cell growth at 0.01 uM incubated for 48 hrs by sulforhodamine B assay relative to control; conditions: read-out: Activity
# M14 = test: Growth inhibition of human M14 cells assessed as cell growth at 0.01 uM incubated for 48 hrs by sulforhodamine B assay relative to control; conditions: read-out: Activity
# DU-145 = test: Growth inhibition of human DU-145 cells assessed as cell growth at 0.01 uM incubated for 48 hrs by sulforhodamine B assay relative to control; conditions: read-out: Activity
# BT-549 = test: Growth inhibition of human BT-549 cells assessed as cell growth at 0.01 uM incubated for 48 hrs by sulforhodamine B assay relative to control; conditions: read-out: Activity
# K562 = test: Growth inhibition of human K562 cells assessed as cell growth at 0.1 uM incubated for 48 hrs by sulforhodamine B assay relative to control; conditions: read-out: Activity
# NCI-H23 = test: Growth inhibition of human NCI-H23 cells assessed as cell growth at 0.1 uM incubated for 48 hrs by sulforhodamine B assay relative to control; conditions: read-out: Activity
# NCI-H460 = test: Growth inhibition of human NCI-H460 cells assessed as cell growth at 0.1 uM incubated for 48 hrs by sulforhodamine B assay relative to control; conditions: read-out: Activity
# HCC 2998 [3] = test: Growth inhibition of human HCC 2998 cells assessed as cell growth at 0.1 uM incubated for 48 hrs by sulforhodamine B assay relative to control; conditions: read-out: Activity
# HCT-15 = test: Growth inhibition of human HCT-15 cells assessed as cell growth at 0.1 uM incubated for 48 hrs by sulforhodamine B assay relative to control; conditions: read-out: Activity
# MDA-MB-435 = test: Growth inhibition of human MDA-MB-435 cells assessed as cell growth at 0.1 uM incubated for 48 hrs by sulforhodamine B assay relative to control; conditions: read-out: Activity
# UACC-62 = test: Growth inhibition of human UACC-62 cells assessed as cell growth at 0.1 uM incubated for 48 hrs by sulforhodamine B assay relative to control; conditions: read-out: Activity
# A498 [4] = test: Growth inhibition of human A498 cells assessed as cell growth at 0.1 uM incubated for 48 hrs by sulforhodamine B assay relative to control; conditions: read-out: Activity
# ACHN = test: Growth inhibition of human ACHN cells assessed as cell growth at 0.1 uM incubated for 48 hrs by sulforhodamine B assay relative to control; conditions: read-out: Activity
# MDA-MB-468 = test: Growth inhibition of human MDA-MB-468 cells assessed as cell growth at 0.1 uM incubated for 48 hrs by sulforhodamine B assay relative to control; conditions: read-out: Activity
# A549 = test: Growth inhibition of human A549/ATCC cells assessed as cell growth at 1 uM incubated for 48 hrs by sulforhodamine B assay relative to control; conditions: read-out: Activity
# HCT-116 [5] = test: Growth inhibition of human HCT-116 cells assessed as cell growth at 1 uM incubated for 48 hrs by sulforhodamine B assay relative to control; conditions: read-out: Activity
# SF-295 = test: Growth inhibition of human SF-295 cells assessed as cell growth at 1 uM incubated for 48 hrs by sulforhodamine B assay relative to control; conditions: read-out: Activity
# SNB-19 = test: Growth inhibition of human SNB-19 cells assessed as cell growth at 1 uM incubated for 48 hrs by sulforhodamine B assay relative to control; conditions: read-out: Activity
# LOX IMVI = test: Growth inhibition of human LOX IMVI cells assessed as cell growth at 1 uM incubated for 48 hrs by sulforhodamine B assay relative to control; conditions: read-out: Activity
# UACC-257 [6] = test: Growth inhibition of human UACC-257 cells assessed as cell growth at 1 uM incubated for 48 hrs by sulforhodamine B assay relative to control; conditions: read-out: Activity
# 786-0 = test: Growth inhibition of human 786-0 cells assessed as cell growth at 1 uM incubated for 48 hrs by sulforhodamine B assay relative to control; conditions: read-out: Activity
# NCI-H226 = test: Growth inhibition of human NCI-H226 cells assessed as cell growth at 100 uM incubated for 48 hrs by sulforhodamine B assay relative to control; conditions: read-out: Activity
# NCI-H322M [7] = test: Growth inhibition of human NCI-H322M cells assessed as cell growth at 100 uM incubated for 48 hrs by sulforhodamine B assay relative to control; conditions: read-out: Activity
# HCC 2998 [8] = test: Growth inhibition of human HCC 2998 cells assessed as cell growth at 100 uM incubated for 48 hrs by sulforhodamine B assay relative to control; conditions: read-out: Activity
# HCT-116 [9] = test: Growth inhibition of human HCT-116 cells assessed as cell growth at 100 uM incubated for 48 hrs by sulforhodamine B assay relative to control; conditions: read-out: Activity
# SNB-75 [10] = test: Growth inhibition of human SNB-75 cells assessed as cell growth at 100 uM incubated for 48 hrs by sulforhodamine B assay relative to control; conditions: read-out: Activity
# UACC-257 [11] = test: Growth inhibition of human UACC-257 cells assessed as cell growth at 100 uM incubated for 48 hrs by sulforhodamine B assay relative to control; conditions: read-out: Activity
# OVCAR-3 = test: Growth inhibition of human OVCAR-3 cells assessed as cell growth at 100 uM incubated for 48 hrs by sulforhodamine B assay relative to control; conditions: read-out: Activity
# HOP-62 [12] = test: Growth inhibition of human HOP-62 cells incubated for 48 hrs by sulforhodamine B assay
# NCI-H322M [13] = test: Growth inhibition of human NCI-H322M cells incubated for 48 hrs by sulforhodamine B assay
# SK-MEL-28 = test: Growth inhibition of human SK-MEL-28 cells incubated for 48 hrs by sulforhodamine B assay
# A498 [14] = test: Growth inhibition of human A498 cells incubated for 48 hrs by sulforhodamine B assay
# UO-31 = test: Growth inhibition of human UO-31 cells incubated for 48 hrs by sulforhodamine B assay
# [15] = read-out: LC50 (the source's name)
# [16] = read-out: pLC50 (the source's name) (converted)
smiles,measurement,setting,value
CC(=O)Nc1cc(CCl)cc(NC(=O)c2ccc(C(=O)Nc3cccc(NC(=O)CCCN(C)C)c3)cc2)c1,growth at 0.01 µM,EKVX,93%
same,growth at 0.01 µM,HOP-62 [1],101%
same,growth at 0.01 µM,COLO 205,112%
same,growth at 0.01 µM,SNB-75 [2],82%
same,growth at 0.01 µM,M14,108%
same,growth at 0.01 µM,DU-145,106%
same,growth at 0.01 µM,BT-549,104%
same,growth at 0.1 µM,K562,99%
same,growth at 0.1 µM,NCI-H23,98%
same,growth at 0.1 µM,NCI-H460,106%
same,growth at 0.1 µM,HCC 2998 [3],94%
same,growth at 0.1 µM,HCT-15,88%
same,growth at 0.1 µM,MDA-MB-435,93%
same,growth at 0.1 µM,UACC-62,103%
same,growth at 0.1 µM,A498 [4],73%
same,growth at 0.1 µM,ACHN,101%
same,growth at 0.1 µM,MDA-MB-468,84%
same,growth at 1 µM,A549,94%
same,growth at 1 µM,HCT-116 [5],107%
same,growth at 1 µM,SF-295,70%
same,growth at 1 µM,SNB-19,104%
same,growth at 1 µM,LOX IMVI,86%
same,growth at 1 µM,UACC-257 [6],95%
same,growth at 1 µM,786-0,105%
same,growth at 100 µM,NCI-H226,87%
same,growth at 100 µM,NCI-H322M [7],103%
same,growth at 100 µM,HCC 2998 [8],93%
same,growth at 100 µM,HCT-116 [9],82%
same,growth at 100 µM,SNB-75 [10],97%
same,growth at 100 µM,UACC-257 [11],105%
same,growth at 100 µM,OVCAR-3,105%
same,GI50,HOP-62 [12]; read-out: GI50,> 100 µM
same,CC50,HOP-62 [12]; [15],> 100 µM
same,TGI,HOP-62 [12]; read-out: TGI,> 100 µM
same,GI50,HOP-62 [12]; read-out: pGI50 (converted),> 100 µM
same,CC50,HOP-62 [12]; [16],> 100 µM
same,TGI,HOP-62 [12]; read-out: pTGI,> 100 µM
same,GI50,NCI-H322M [13]; read-out: GI50,> 100 µM
same,CC50,NCI-H322M [13]; [15],> 100 µM
same,TGI,NCI-H322M [13]; read-out: TGI,> 100 µM
same,GI50,NCI-H322M [13]; read-out: pGI50 (converted),> 100 µM
same,CC50,NCI-H322M [13]; [16],> 100 µM
same,TGI,NCI-H322M [13]; read-out: pTGI,> 100 µM
same,GI50,SK-MEL-28; read-out: GI50,> 100 µM
same,LC50 (50% lethal concentration),SK-MEL-28; read-out: LC50,> 100 µM
same,TGI,SK-MEL-28; read-out: TGI,> 100 µM
same,GI50,SK-MEL-28; read-out: pGI50 (converted),> 100 µM
same,LC50 (50% lethal concentration),SK-MEL-28; read-out: pLC50 (converted),> 100 µM
same,TGI,SK-MEL-28; read-out: pTGI,> 100 µM
same,GI50,A498 [14]; read-out: GI50,> 100 µM
same,LC50 (concentration giving 50% net cell kill),A498 [14]; read-out: LC50,> 100 µM
same,TGI,A498 [14]; read-out: TGI,> 100 µM
same,GI50,A498 [14]; read-out: pGI50 (converted),> 100 µM
same,LC50 (concentration giving 50% net cell kill),A498 [14]; read-out: pLC50 (converted),> 100 µM
same,TGI,A498 [14]; read-out: pTGI,> 100 µM
same,GI50,UO-31; read-out: GI50,> 100 µM
same,CC50,UO-31; [15],> 100 µM
same,TGI,UO-31; read-out: TGI,> 100 µM
same,GI50,UO-31; read-out: pGI50 (converted),> 100 µM
same,CC50,UO-31; [16],> 100 µM
same,TGI,UO-31; read-out: pTGI,> 100 µM
